# Measured values from publication PMC9841397 (2023).
# Test system: CMP-D-C3 (C3, ΔP1a) (RNA, riboswitch) GGAGCGUUACGUCCGCCCACGGCUCUUUAAAAACAAAAGGA
# Experiment: ITC
# Settings: 100 mM K+, 20 mM Mg2+; 50 mM K-MOPS pH 7.5, 25 °C
smiles,measurement,value
NC(=O)c1ccc[n+]([C@@H]2O[C@H](COP(=O)(O)O)[C@@H](O)[C@H]2O)c1,Kd,18.3 ± 1.2 µM
